Reference: article PMC12040169 (PLOS Biology, 2025)

Assay: in vitro
Settings: human, hela cells, % viability

| SMILES | viability at 28.5 h, 10 µM [%] | viability at 28.5 h, 10 µM (bulk resorufin, single well) [%] |
| --- | --- | --- |
| COc1cc(Br)c(/C=C(/C#N)C(=O)Nc2ccc(O)cc2)cc1OC [CBK262733] | 79.9 | – |
| CCc1ccc2[nH]c3nc(NN)nnc3c2c1 [CBK262734] | 65.1 | – |
| CCn1cc(C(=O)NN)c(=O)c2cc(F)c(NN)cc21 [CBK262735] | 79.1 | – |
| O=C(NNc1c(Cl)cccc1Cl)C(O)(c1ccccc1)c1ccccc1 [CBK262739] | – | 101 |
| Cc1ccc(S(=O)(=O)N2/C(=C\COc3ccc(Cl)cc3Cl)C(N3CCOCC3)c3ccccc32)cc1 (stereo not drawn) [CBK262740] | 87.6 | – |
| O=[N+]([O-])c1ccc(OC/C=C2\Oc3ccc([N+](=O)[O-])cc3C2N2CCOCC2)cc1 (stereo not drawn) [CBK262743] | – | 91.8 |
| CCCOc1ccc(CCNc2ncnc(N)n2)cc1 [CBK262744] | 90.1 | – |
| CS(=O)(=O)N(Cc1ccccc1)c1ccc(C(=O)Nc2ccccc2Cl)cc1 [CBK262745] | 86.9 | – |
| Cc1[nH]nc(Nc2ccc(I)cc2)c1[N+](=O)[O-] [CBK262748] | 86.2 | – |
| CN1CCC(=NNC(=O)c2ccc(CN3CCOCC3)cc2)CC1 [CBK262749] | 86.6 | – |
| CC(C)c1cccc(C(C)C)c1OCCNCCO [CBK262750] | 89.3 | – |
| COc1ccc(/C=C(/C#N)C(=O)Nc2cccc(C)c2C)cc1C(=O)O [CBK262751] | 87.4 | – |
| C/C(=N\NC(=O)c1ccc(CN2CCOCC2)cc1)c1ccc2c(c1)OCCO2 [CBK262755] | 92 | – |
| NCCNc1ccc([N+](=O)[O-])c(NCc2ccccc2)c1 [CBK262757C] | 83.7 | – |
| COc1cccc(/C=N/NC(=O)CSc2nnc(C)n2-c2ccccc2)c1O [CBK262758] | 80.7 | – |
| O=C(N/N=C\c1ccc(OCc2ccccc2)cc1)C1COc2cc3ccccc3cc2O1 (stereo not drawn) [CBK262764] | 95.6 | – |
| CN(C)c1ccc(NC(=O)CC2Nc3ccccc3NC2=O)cc1 (stereo not drawn) [CBK262765] | 87.1 | – |

| SMILES | viability at 28.5 h, 10 µM [%] | viability at 28.5 h, 10 µM (bulk resorufin, single well) [%] |
| --- | --- | --- |
| O=C(O)c1ccccc1-c1ccccc1C(=O)Nc1cccc(-c2nc3ccccc3o2)c1 [CBK262767] | 103 | – |
| Cc1nnc(SCC(=O)N/N=C/c2cc([N+](=O)[O-])ccc2O)n1-c1ccccc1 [CBK262768] | 89.5 | – |
| O=C(O)CCCCCN1C(=O)/C(=C/c2ccc(O)c(O)c2)SC1=S [CBK262771] | 91 | – |
| O=c1oc(-c2cccc(F)c2)nc2cc(Cc3ccc4c(=O)oc(-c5cccc(F)c5)nc4c3)ccc12 [CBK262775] | 121 | – |
| O=C(NCC1CCCO1)c1ccc2c(c1)C(=O)N(c1ccccc1-c1ccccc1)C2=O (stereo not drawn) [CBK262777] | 86 | – |
| COc1ccc(/C=C2\S/C(=N/N=C/c3ccc(OC)cc3)N(c3ccc(O)cc3)C2=O)cc1 [CBK262780] | 87.7 | – |
| CCCc1[nH]n(-c2ccc([N+](=O)[O-])cc2)c(=O)c1/C=N/N1CCN(C)CC1 [CBK262781] | 92.8 | – |
| Cc1ccc(N2C(=O)c3ccc(S(=O)(=O)c4cccc(C(=O)O)c4)cc3C2=O)c(C)c1 [CBK262783] | 86.2 | – |
| O=C(O)CCN1C(=O)/C(=C/c2ccc(C(=O)O)cc2)SC1=S [CBK262785] | 93.2 | – |
| O=C(CSc1nnc(-c2ccncc2)n1-c1ccccc1)N/N=C/c1ccccc1O [CBK262788] | 85 | – |
| COc1ccc(/C=N/NC(=O)Cc2cccn2C)cc1[N+](=O)[O-] [CBK262789] | 99.1 | – |
| CC(=O)Nc1ccc(/C=N/NC(=O)c2nnn(-c3nonc3N)c2-c2ccccc2)cc1 [CBK262790] | 94.9 | – |
| O=C(CSc1nnc(-c2ccccc2)n1-c1ccccc1)N/N=C/c1coc2ccccc2c1=O [CBK262791] | 97.6 | – |
| Cc1ccc(C(=O)Nc2cccc(-c3nc4ncccc4o3)c2C)cc1[N+](=O)[O-] [CBK262793] | 94.3 | – |
| O=c1[nH]nc(SCCOc2c(Cl)c(Cl)c(Cl)c(Cl)c2Cl)c(=O)[nH]1 [CBK262794] | 91 | – |
| Cc1ccc(C(=O)O)cc1NC(=O)c1cccc(C(=O)Nc2cc(C(=O)O)ccc2C)c1 [CBK262797] | 97.5 | – |
